US12516022B2, “Derivatives of aryl hydrocarbon receptor agonists” (AZORA THERAPEUTICS, INC., priority 2021, dated 2026)

Experiment: Time course of conversion to indirubin in FaSSGF at 37° C.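 Also: compound incubated in fasted state simulated gastric fluid, species in samples quantified by UPLC-MS with UV (210–400 nm) and ELS detection.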
Assay type: physicochemical
Details: FaSSGF (Example 4; table title prints FaSSIF) 37° C.; for Conversion to indirubin: over a 24 hour period

Row | Structure (SMILES) | indirubin (15 min) | indirubin methylene alcohol (15 min) | starting material (prodrug compound) (15 min) | indirubin (30 min) | indirubin methylene alcohol (30 min) | starting material (prodrug compound) (30 min) | indirubin (1 h) | indirubin methylene alcohol (1 h) | starting material (prodrug compound) (1 h) | indirubin (2 h) | indirubin methylene alcohol (2 h) | starting material (prodrug compound) (2 h) | indirubin (24 h) | indirubin methylene alcohol (24 h) | starting material (prodrug compound) (24 h) | Conversion to indirubin
1 | CC(=O)N1CCN(CN2C(=O)/C(=C3\Nc4ccccc4C3=O)c3ccccc32)CC1 [drawing 281] | 4% | 4% | 92% | 3% | 0% | 97% | 4% | 4% | 87% | 3% | 0% | 97% | 0% | 0% | 100% | 0-20%
2 | O=C1/C(=C2/C(=O)N(CN3CCC3)c3ccccc32)Nc2ccccc21 [drawing 275] | 25% | 2% | 71% | 26% | 4% | 70% | 25% | 2% | 71% | 24% | 2% | 71% | 23% | 3% | 74% | 20-40%
3 | CN(C)C1CCN(CN2C(=O)/C(=C3\Nc4ccccc4C3=O)c3ccccc32)CC1 [drawing 272] | 51% | 5% | 41% | 55% | 5% | 36% | 44% | 10% | 46% | 44% | 10% | 46% | 61% | 1% | 31% | 60-80%
4 | CN1CCN(CN2C(=O)/C(=C3\Nc4ccccc4C3=O)c3ccccc32)CC1 [drawing 273] | 23% | 0% | 75% | 18% | 0% | 76% | 24% | 0% | 74% | 24% | 0% | 76% | 41% | 0% | 58% | 40-60%

Results, then the compound that gave them:

Row | indirubin (15 min) | indirubin methylene alcohol (15 min) | starting material (prodrug compound) (15 min) | indirubin (30 min) | indirubin methylene alcohol (30 min) | starting material (prodrug compound) (30 min) | indirubin (1 h) | indirubin methylene alcohol (1 h) | starting material (prodrug compound) (1 h) | indirubin (2 h) | indirubin methylene alcohol (2 h) | starting material (prodrug compound) (2 h) | indirubin (24 h) | indirubin methylene alcohol (24 h) | starting material (prodrug compound) (24 h) | Conversion to indirubin | Structure (SMILES)
5 |  |  |  |  |  |  |  |  |  |  |  |  |  |  |  | 0-20% | O=C1/C(=C2/C(=O)N(CN3CCC(F)(F)CC3)c3ccccc32)Nc2ccccc21 [drawing 280]
6 | 7% | 0% | 89% | 8% | 0% | 85% | 10% | 5% | 85% | 11% | 3% | 80% | 29% | 3% | 68% | 20-40% | O=C1/C(=C2/C(=O)N(CN3CCOCC3)c3ccccc32)Nc2ccccc21 [drawing 276]
7 | 0% | 0% | 100% | 0% | 0% | 100% | 0% | 0% | 100% | 0% | 0% | 100% | 0% | 0% | 100% | 0-20% | CNCCNC(=O)N1C(=O)/C(=C2\Nc3ccccc3C2=O)c2ccccc21.Cl [drawing 279]
